Reference: PubChem BioAssay (NCI)
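Here, GI50 denotes the concentration required for 50% inhibition of growth. TGI: concentration producing complete growth inhibition.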

How the values were obtained:
Assay in all cases: DTP human tumour cell line panel, 384-well format
NCI-H322M lung = test system: NCI-H322M lung
OVCAR-3 ovarian = test system: OVCAR-3 ovarian
HS 578T breast = test system: HS 578T breast
SF-268 CNS = test system: SF-268 CNS
T-47D breast = test system: T-47D breast
CAKI-1 renal = test system: CAKI-1 renal
SNB-75 CNS = test system: SNB-75 CNS
EKVX NSCLC = test system: EKVX NSCLC
NCI-H460 NSCLC = test system: NCI-H460 NSCLC
NCI/ADR-RES ovarian = test system: NCI/ADR-RES ovarian
UACC-62 melanoma = test system: UACC-62 melanoma
SF-539 CNS = test system: SF-539 CNS
MDA-MB-468 breast = test system: MDA-MB-468 breast
BT-549 breast = test system: BT-549 breast
HT29 colon = test system: HT29 colon
PC-3 prostate = test system: PC-3 prostate
OVCAR-8 ovarian = test system: OVCAR-8 ovarian
IGROV1 ovarian = test system: IGROV1 ovarian
SK-MEL-28 melanoma = test system: SK-MEL-28 melanoma
K-562 leukemia = test system: K-562 leukemia
SK-OV-3 ovarian = test system: SK-OV-3 ovarian
MCF7 breast = test system: MCF7 breast
COLO 205 colon = test system: COLO 205 colon
SN12C renal = test system: SN12C renal
OVCAR-4 ovarian = test system: OVCAR-4 ovarian
HOP-62 NSCLC = test system: HOP-62 NSCLC
RXF 393 renal = test system: RXF 393 renal
LOX IMVI melanoma = test system: LOX IMVI melanoma
MDA-MB-231 breast = test system: MDA-MB-231 breast
U251 glioblastoma = test system: U251 glioblastoma
NCI-H226 lung = test system: NCI-H226 lung
UACC-257 melanoma = test system: UACC-257 melanoma
SF-295 CNS = test system: SF-295 CNS
SW-620 colon = test system: SW-620 colon
HOP-92 NSCLC = test system: HOP-92 NSCLC
CCRF-CEM leukemia = test system: CCRF-CEM leukemia
MALME-3M melanoma = test system: MALME-3M melanoma
HCT-15 colon = test system: HCT-15 colon
MOLT-4 leukemia = test system: MOLT-4 leukemia
HCC-2998 colon = test system: HCC-2998 colon
M14 melanoma = test system: M14 melanoma
UO-31 renal = test system: UO-31 renal
DU-145 prostate = test system: DU-145 prostate
HCT-116 colon = test system: HCT-116 colon
A549 NSCLC = test system: A549 NSCLC
MDA-MB-435 melanoma = test system: MDA-MB-435 melanoma
A498 renal = test system: A498 renal
RPMI-8226 leukemia = test system: RPMI-8226 leukemia
NCI-H522 lung = test system: NCI-H522 lung
786-0 renal = test system: 786-0 renal
KM12 colon = test system: KM12 colon
TK-10 renal = test system: TK-10 renal
ACHN renal = test system: ACHN renal
SNB-19 CNS = test system: SNB-19 CNS
HL-60(TB) leukemia = test system: HL-60(TB) leukemia
SR leukemia = test system: SR leukemia
NCI-H23 lung = test system: NCI-H23 lung
SK-MEL-5 melanoma = test system: SK-MEL-5 melanoma

Compound `Cc1nc(-c2cn3c(n2)-c2ccc(-c4cnn(C(C)(C)C(N)=O)c4)cc2OCC3)n(C(C)C)n1` has a GI50 (NCI-H322M lung) of 0.312 µM, a TGI (NCI-H322M lung) of 14.2 µM and a GI50 (OVCAR-3 ovarian) of 0.398 µM. The TGI (OVCAR-3 ovarian) was 9.21 µM, the GI50 (HS 578T breast) was 0.567 µM and the TGI (HS 578T breast) was 12.5 µM. The GI50 (SF-268 CNS) was 3.31 µM, the TGI (SF-268 CNS) was 29.5 µM and the GI50 (T-47D breast) was < 0.01 µM. The TGI (T-47D breast) was 0.0399 µM, the GI50 (CAKI-1 renal) was 0.342 µM and the TGI (CAKI-1 renal) was 31.8 µM. The GI50 (SNB-75 CNS) was 0.221 µM, the TGI (SNB-75 CNS) was 15.3 µM and the GI50 (EKVX NSCLC) was 0.756 µM. The TGI (EKVX NSCLC) was 15.4 µM, the GI50 (NCI-H460 NSCLC) was 0.134 µM and the TGI (NCI-H460 NSCLC) was 11.4 µM. The GI50 (NCI/ADR-RES ovarian) was 13.2 µM, the TGI (NCI/ADR-RES ovarian) was 52.7 µM and the GI50 (UACC-62 melanoma) was 0.71 µM. For the same compound, the TGI (UACC-62 melanoma) was 7.5 µM, the GI50 (SF-539 CNS) was 1.09 µM and the TGI (SF-539 CNS) was 20.2 µM. The GI50 (MDA-MB-468 breast) was 0.147 µM, the TGI (MDA-MB-468 breast) was 1.34 µM and the GI50 (BT-549 breast) was 1.67 µM. For the same compound, the TGI (BT-549 breast) was 19.9 µM, the GI50 (HT29 colon) was 0.085 µM and the TGI (HT29 colon) was 16.6 µM. For the same compound, the GI50 (PC-3 prostate) was 0.396 µM, the TGI (PC-3 prostate) was 12.2 µM and the GI50 (OVCAR-8 ovarian) was 3.01 µM. For the same compound, the TGI (OVCAR-8 ovarian) was 84 µM, the GI50 (IGROV1 ovarian) was 0.0125 µM and the TGI (IGROV1 ovarian) was 0.0541 µM. For the same compound, the GI50 (SK-MEL-28 melanoma) was 0.484 µM, the TGI (SK-MEL-28 melanoma) was > 100 µM and the GI50 (K-562 leukemia) was 12.9 µM. It also gave a TGI (K-562 leukemia) of 84.8 µM, a GI50 (SK-OV-3 ovarian) of 0.0291 µM and a TGI (SK-OV-3 ovarian) of 1.95 µM. The GI50 (MCF7 breast) was 0.0152 µM, the TGI (MCF7 breast) was 15.1 µM and the GI50 (COLO 205 colon) was 0.396 µM. For the same compound, the TGI (COLO 205 colon) was 25.4 µM, the GI50 (SN12C renal) was 0.27 µM and the TGI (SN12C renal) was > 100 µM. For the same compound, the GI50 (OVCAR-4 ovarian) was 15.2 µM, the TGI (OVCAR-4 ovarian) was 93.7 µM and the GI50 (HOP-62 NSCLC) was 5.99 µM. For the same compound, the TGI (HOP-62 NSCLC) was 91.3 µM, the GI50 (RXF 393 renal) was 1.99 µM and the TGI (RXF 393 renal) was 11.3 µM. For the same compound, the GI50 (LOX IMVI melanoma) was 1.99 µM, the TGI (LOX IMVI melanoma) was 15.4 µM and the GI50 (MDA-MB-231 breast) was 5.79 µM. The TGI (MDA-MB-231 breast) was > 100 µM, the GI50 (U251 glioblastoma) was 3.56 µM and the TGI (U251 glioblastoma) was > 100 µM. It also gave a GI50 (NCI-H226 lung) of 2.82 µM, a TGI (NCI-H226 lung) of 41 µM and a GI50 (UACC-257 melanoma) of 7.34 µM. For the same compound, the TGI (UACC-257 melanoma) was 40.7 µM, the GI50 (SF-295 CNS) was 0.95 µM and the TGI (SF-295 CNS) was 9 µM. The GI50 (SW-620 colon) was 12.5 µM, the TGI (SW-620 colon) was > 100 µM and the GI50 (HOP-92 NSCLC) was 0.226 µM. The TGI (HOP-92 NSCLC) was 29.9 µM, the GI50 (CCRF-CEM leukemia) was 0.343 µM and the TGI (CCRF-CEM leukemia) was 13.7 µM. The GI50 (MALME-3M melanoma) was 0.164 µM, the TGI (MALME-3M melanoma) was 4.21 µM and the GI50 (HCT-15 colon) was 1.59 µM. It also gave a TGI (HCT-15 colon) of 23.6 µM, a GI50 (MOLT-4 leukemia) of 0.0746 µM and a TGI (MOLT-4 leukemia) of 1.12 µM. The GI50 (HCC-2998 colon) was 0.831 µM, the TGI (HCC-2998 colon) was 14 µM and the GI50 (M14 melanoma) was 7.41 µM. The TGI (M14 melanoma) was 32.1 µM, the GI50 (UO-31 renal) was 0.848 µM and the TGI (UO-31 renal) was > 100 µM. For the same compound, the GI50 (DU-145 prostate) was 2.16 µM, the TGI (DU-145 prostate) was 17.8 µM and the GI50 (HCT-116 colon) was 1.92 µM. It also gave a TGI (HCT-116 colon) of 18.3 µM, a GI50 (A549 NSCLC) of 1.43 µM and a TGI (A549 NSCLC) of 14.7 µM. For the same compound, the GI50 (MDA-MB-435 melanoma) was 6.33 µM, the TGI (MDA-MB-435 melanoma) was 53.2 µM and the GI50 (A498 renal) was 1.96 µM. The TGI (A498 renal) was 12.4 µM, the GI50 (RPMI-8226 leukemia) was 3.21 µM and the TGI (RPMI-8226 leukemia) was 13.3 µM. The GI50 (NCI-H522 lung) was 3.56 µM, the TGI (NCI-H522 lung) was 27.3 µM and the GI50 ([…]-0 renal) was 2.6 µM. The TGI (786-0 renal) was 87.3 µM, the GI50 (KM12 colon) was 3.72 µM and the TGI (KM12 colon) was 17 µM. It also gave a GI50 (TK-10 renal) of 0.387 µM, a TGI (TK-10 renal) of 19.2 µM and a GI50 (ACHN renal) of 1.36 µM. The TGI (ACHN renal) was > 100 µM, the GI50 (SNB-19 CNS) was 13.8 µM and the TGI (SNB-19 CNS) was > 100 µM. The GI50 (HL-60(TB) leukemia) was < 0.01 µM, the TGI (HL-60(TB) leukemia) was 0.115 µM and the GI50 (SR leukemia) was 0.785 µM. It also gave a TGI (SR leukemia) of 2.53 µM, a GI50 (NCI-H23 lung) of 11.3 µM and a TGI (NCI-H23 lung) of 50.5 µM. The GI50 (SK-MEL-5 melanoma) was 1.26 µM and the TGI (SK-MEL-5 melanoma) was 9.2 µM.
